Data from patent US9447408B2, “Method of efficiently establishing induced pluripotent stem cells” (Kyoto University, priority 2010, dated 2016).

Assays:
[1] = test system: Human dermal fibroblasts (HDF 1616 line); test: Human iPS cell colony formation, 4 genes introduced, SB202190 added Day 0 or day 5; format: cell-based
Method: Human dermal fibroblasts (HDF 1616 line) were treated using a lentivirus (pLenti6/UbC-Slc7a1) according to the method described by Takahashi, K. et al. in Cell, 131: 861-872 (2007), to express the mouse ecotropic virus receptor Slc7a1 gene. These cells were seeded to a 6-well culture plate (Falcon), previously coated with 0.1% gelatin (Sigma), at 1.0×10^5 cells per well. The following day, the four human genes were introduced using a retrovirus according to the method described by Takahashi, K. et al. in Cell, 131: 861-872 (2007). On day 4 after the infection, 2.0×10^5 cells were seeded to a 100 mm dish, containing previously seeded feeder cells. To determine the effect of a p38 inhibitor, SB202190 was added simultaneously with the infection (Day 0), or on day 5 after the infection, and the efficiency of iPS cell establishment was compared. On day 16 after the infection, iPS cell colonies were counted. The results are shown in the upper panel in FIG. 3. In the context of introduction of the four genes (Oct3/4, Sox2, Klf4, C-Myc), the number of human iPS cell colonies increased with the addition of SB202190 in the initial stage after the infection, compared with the addition of DMSO for control and the addition of SB202190 on day 5 after the infection. The four genes were introduced using a retrovirus in the same manner, but at a different cell density (3×10^4 cells/10 cm dish), with simultaneous addition of SB202190 (Day 0). SB202190 was added also on day 5 after the infection, and the efficiency of iPS cell establishment was compared. On day 16 after the infection, colony sizes were measured. The results are shown in the lower panel in FIG. 3. Even when the cell density was changed, the number of iPS cell colonies increased with the addition of SB202190 along with the four factors (Oct3/4, Sox2, Klf4, C-Myc), compared with the addition of DMSO.

[2] = test system: Human dermal fibroblasts (Tig109 line); test: Human iPS cell colony formation, 3 genes introduced, various p38 inhibitors; format: cell-based; conditions: 10 μM inhibitor
Method: Human dermal fibroblasts (Tig109 line) were treated using a lentivirus (pLenti6/UbC-Slc7a1) according to the method described by Takahashi, K. et al. in Cell, 131: 861-872 (2007), to express the mouse ecotropic virus receptor Slc7a1 gene. These cells (2×10^5 cells/10 cm dish) were transfected with the four genes using a retrovirus according to the method described by Takahashi, K. et al. in Cell, 131: 861-872 (2007); each compound was added per the schedule shown below. • 1. Oct3/4, Sox2, Klf4, c-Myc, each derived from human, saline • 2. Oct3/4, Sox2, Klf4, c-Myc, each derived from human, DMSO (Day 5-35) • 3. Oct3/4, Sox2, Klf4, c-Myc, each derived from human, SB202190 10 μM (Day 5-20) • 4. Oct3/4, Sox2, Klf4, c-Myc, each derived from human, SB239063 10 μM (Day 5-20) • 5. Oct3/4, Sox2, Klf4, c-Myc, each derived from human, SB202190 10 μM (Day 21-35) • 6. Oct3/4, Sox2, Klf4, c-Myc, each derived from human, SB239063 10 μM (Day 21-35) • 7. Oct3/4, Sox2, Klf4, c-Myc, each derived from human, SB202190 10 μM (Day 5-35) • 8. Oct3/4, Sox2, Klf4, c-Myc, each derived from human, SB239063 10 μM (Day 5-35) Subsequently, three genes (Oct3/4, Sox2, Klf4) were introduced using a retrovirus in the same manner, and the efficiency of iPS cell establishment was compared. • 1. Oct3/4, Sox2, Klf4, each derived from human, saline • 2. Oct3/4, Sox2, Klf4, each derived from human, DMSO (Day 5-35) • 3. […]

Oc1ccc(-c2nc(-c3ccc(F)cc3)c(-c3ccncc3)[nH]2)cc1 [SB202190, 4-(4-fluorophenyl)-2-(4-hydroxyphenyl)-5-(4-pyridyl)imidazole]
number of human iPS cell colonies on day 16 after the infection ([1]; 2.0×10^5 cells/100 mm dish, added in the initial stage (Day 0), compared with DMSO and addition on day 5): increased | number of iPS cell colonies on day 16 compared with DMSO ([1]; 3×10^4 cells/10 cm dish): increased | efficiency of iPS cell establishment, added on day 5 versus simultaneously with the infection ([1]; lower cell density 3×10^4 cells/10 cm dish): higher | number of iPS cell colonies on day 40 after the infection compared with physiological saline and DMSO [2]: increased remarkably | number of positive colonies on day 32 after the infection compared with physiological saline and DMSO [2]: increased
